Experimental data taken from ChEMBL document CHEMBL2021871, “The effects of diketopiperazines from Callyspongia sp. on release of cytokines and chemokines in cultured J774A.1 macrophages” (2012).
Active and inactive are the calls of the source. The rule behind the calls is not given here.

Columns and labels:
Assay type in all cases: functional
[1] = system: J774.A1; assay: Induction of IL10 secretion in mouse J774A1 cells at 5 ug/mL after 48 hrs by ELISA relative to control
[2] = system: J774.A1; assay: Induction of IFN-gamma secretion in mouse J774A1 cells at 5 ug/mL after 48 hrs by ELISA relative to control
[3] = system: J774.A1; assay: Induction of MCP-1 secretion in mouse J774A1 cells at 5 ug/mL after 48 hrs by ELISA relative to control
[4] = system: J774.A1; assay: Induction of TNF-alpha secretion in mouse J774A1 cells at 5 ug/mL after 48 hrs by ELISA relative to control
[5] = system: J774.A1; assay: Reduction of TNF-alpha secretion in mouse J774A1 cells at 5 ug/mL after 48 hrs by ELISA relative to control; parameters: scale not given: the % may be the effect or the level left

Structure (SMILES): C[C@@H]1NC(=O)[C@@H]2CCCN2C1=O
- fold change (FC) [1]: 1.56
- fold change (FC) [2]: 1.36
- fold change (FC) [3]: 1.47

Structure (SMILES): C[C@@H]1NC(=O)[C@@H]2C[C@@H](O)CN2C1=O
- fold change (FC) [1]: 1.65
- fold change (FC) [2]: 4.49
- fold change (FC) [3]: 3.09
- fold change (FC) [4]: 1.12

Structure (SMILES): O=C1NCC(=O)N2CCC[C@@H]12 [CYCLO(PROLYLGLYCYL)]
- fold change (FC) [1]: 1.29
- fold change (FC) [2]: 3.5
- fold change (FC) [3]: 1.86
- Activity [4]: inactive

Structure (SMILES): O=C1N[C@@H](Cc2ccccc2)C(=O)N2CCC[C@@H]12
- fold change (FC) [1]: 1.54
- fold change (FC) [2]: 1.62
- fold change (FC) [3]: 2.05
- Activity [4]: inactive

Structure (SMILES): CC(C)C[C@@H]1NC(=O)[C@H](Cc2ccc(O)cc2)NC1=O
- Activity [1]: inactive
- fold change (FC) [2]: 1.82
- Activity [5]: 88.3%
- fold change (FC) [3]: 2.24
- Activity [4]: inactive
